The test system of assay [1] is isolierten Aortenringen der Ratte. As to the kind of experiment: Inhibition of endothelin-induced contractions in isolated rat aortic rings. Format: cell-based, Wistar-Kyoto-Ratten. As to conditions: for Kb: Rattus norvegicus, 10 min, endothelium-denuded thoracic aorta rings, 10 min incubation with test compound, cumulative doses of Endothelin-1, text calls the values pA2 = log(DR-1)-log(antagonist concentration), read-out: Dosisverhältnis (Rechtsverschiebung) (converted). The procedure:
II. Hemmung Endothelin-induzierter Kontraktionen an isolierten Aortenringen der Ratte
Aus der Thoraxaorta von erwachsenen Wistar-Kyoto-Ratten wurden Ringe von 5 mm Länge herausgeschnitten. Das Endothel wurde durch leichtes Reiben der Innenfläche entfernt. Jeder Ring wurde bei 37°C in 10 ml Krebs-Henseleit-Lösung unter Begasung mit 95% O2 und 5% CO2 in ein isoliertes Bad eingetaucht. Die isometrische Spannung der Ringe wurde gemessen. Die Ringe wurden auf eine Vorspannung von 3 g gedehnt. Nach 10 Minuten Inkubation mit der Testverbindung oder Vehikel wurden kumulative Dosen von Endothelin-1 zugegeben. Die Aktivität der Testverbindung wurde ermittelt durch die zu beobachtende Rechtsverschiebung der Dosis-Wirkungskurve von Endothelin-1 in gegenwart verschiedener Konzentrationen an Antagonist. Diese Rechtsverschiebung (oder auch "dose ratio", DR) entspricht dabei dem Quotienten aus den EC50-Werten von Endothelin-1 in Gegenwart und in Abwesenheit von Antagonist, wobei der EC50-Wert die für eine halbmaximale Kontraktion erforderliche Endothelin-Konzentration bezeichnet.
Aus der "dose ratio" DR wurde mittels eines Computerprogramms für jede einzelne Dosis-Wirkungskurve der entsprechende PA2-Wert nach untenstehender Gleichung berechnet, welcher ein Mass für die Aktivität der Testverbindung darstellt. pA2 = log(DR-1)-log(Antagonist-Konzentration) [formula]
Die EC50 von Endothelin in Abwesenheit von Testverbindungen ist 0,3 nM.
Die mit Verbindungen der Formel I so erhaltenen Werte für pA2 sind in Tabelle 2 angegeben. Tabelle 2

The target in another assay is T1, humanen ETA-Rezeptor (Homo sapiens, UniProt P25101).
T1 construct: made in house; host or cells: insect cells (baculovirus expression system); membrane preparation
T1 sequence (P25101 21-427): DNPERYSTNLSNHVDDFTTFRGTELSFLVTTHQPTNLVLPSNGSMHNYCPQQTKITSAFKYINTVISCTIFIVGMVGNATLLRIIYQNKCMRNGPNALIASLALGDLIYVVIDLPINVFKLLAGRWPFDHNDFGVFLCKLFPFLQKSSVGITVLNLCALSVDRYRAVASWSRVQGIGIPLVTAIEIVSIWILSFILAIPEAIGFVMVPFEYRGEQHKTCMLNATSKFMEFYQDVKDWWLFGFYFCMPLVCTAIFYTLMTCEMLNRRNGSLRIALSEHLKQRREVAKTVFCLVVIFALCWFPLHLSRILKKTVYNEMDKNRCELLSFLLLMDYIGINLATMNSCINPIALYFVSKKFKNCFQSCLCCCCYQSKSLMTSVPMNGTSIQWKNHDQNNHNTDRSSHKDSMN
In words: Inhibition of endothelin binding at the recombinant ETA receptor (125I-endothelin, membranes of baculovirus-infected insect cells). As to conditions: concentration required to inhibit 50% of the specific binding of 125I-Endothelin; incubation 2 h at 20°C or 24 h at 4°C. The procedure: I: Hemmung der Endothelin-Bindung am recombinanten ETA-Rezeptor
Baculovirus-infizierte Insektenzellen aus einem 23 l Fermenter werden 60 Stunden nach der Infektion abzentrifugiert (3 000 x g, 15 Minuten, 4°C), in Tris-Puffer (5 mM, pH 7.4, 1 mM MgCl2) resuspendiert und erneut zentrifugiert. Nach erneuter Resuspension und Zentrifugation werden die Zellen in 800 ml des gleichen Puffers suspendiert und bei -120°C eingefroren. Der Aufbruch der Zellen erfolgt beim Auftauen der Suspension in diesem hypotonen Puffergemisch. Nach wiederholtem Gefrier/Auftau-Zyklus wird die Suspension homogenisiert und zentrifugiert (25 000 x g, 15 Minuten, 4°C). Nach Suspension in Tris-Puffer (75 mM, pH 7.4, 25mM MgCl2, 250 mM Saccharose) werden 1 ml Aliquots (Proteingehalt ca. 3.5 mg/ml) bei -85°C aufbewahrt.
Für den Bindungs-Assay werden die eingefrorenen Membranpräparate aufgetaut und nach 10 Minuten Zentrifugieren mit 25000 g bei 20°C in Assay-Puffer (50 mM Tris-Puffer pH 7.4, enthaltend 25 mM MnCl2, 1 mM EDTA und 0,5% Rinderserumalbumin) resuspendiert. […] Die Inkubation wird 2 Stunden bei 20°C oder 24 Stunden bei 4°C durchgeführt. Die Trennung von freiem und Membran-gebundenen Radioliganden wird durch Filtration über Glasfaserfilter vorgenommen.

Usually IC50 stands for the midpoint of a concentration-inhibition curve. In the case of `COc1ccccc1Oc1c(NS(=O)(=O)c2ccc(C(C)C)cn2)nc(N2CCOCC2)nc1OCCOC(=O)Nc1ccccn1` [Beispiel 51, Pyridin-2-ylcarbaminsäure 2-[6-(5-isopropylpyridin-2-ylsulfonylamino)-5-(2-methoxy-phenoxy)-2-morpholin-4-yl-pyrimidin-4-yloxy]ethylester], the Kb in assay [1] was 0.631 nM. On humanen ETA-Rezeptor, the IC50 came to 0.4 nM.
A word on the EC50: it is the midpoint of the concentration-response curve. Regarding Endothelin [reference compound], the concentration for a half-maximal effect (EC50) in assay [1] (endothelin concentration required for half-maximal contraction, without antagonist, read-out: EC50 von Endothelin in Abwesenheit von Testverbindungen) stood at 0.3 nM.
As for `COc1ccccc1Oc1c(NS(=O)(=O)c2ccc(C)cn2)nc(N2CCOCC2)nc1OCCOC(=O)Nc1ccccn1` [Beispiel 34, Pyridin-2-yl-carbaminsäure 2-[5-(2-methoxy-phenoxy)-6-(5-methyl-pyridin-2-ylsulfonylamino)-2-morpholin-4-yl-pyrimidin-4-yloxy]-ethylester], the Kb in assay [1] is 0.2 nM. Besides, the half-inhibitory concentration (IC50) on humanen ETA-Rezeptor was found to be 0.3 nM.

The values above are taken from patent EP0713875B1, “Sulfonamides” (F. Hoffmann-La Roche AG, priority 1994, dated 1996).
